Reference: patent US11760761B2, “Methods and compositions for targeting PD-L1” (Aligos Therapeutics, Inc., priority 2020, dated 2023)

Assays:
[1] = target: PDL1 (Homo sapiens (Human), UniProt Q9NZQ7); test: PDL1 Dimerization Assay; format: biochemical; conditions: 0.5 nM PDL1-6xHis, 0.5 nM PDL1-strep; read-out: PD-L1 dimerization EC50
Experimental: Serially diluted compounds were added to plate wells with the final concentration of DMASO at 1%. PDL1-6×His and PDL1-strep proteins were diluted in assay buffer (25 mM Hepes pH 7.4, 150 mM NaCl, 0.005% Tween 20, BSA 0.01%), added to the wells, and mixed well with the compounds. The plates were incubated for 2 h at room temperature. Anti-6×His Acceptor beads were added to the wells and the plates were further incubated for 1 h at room temperature. Strep-tactin Donor beads were added to the wells at reduced light. After additional 1 h incubation in the dark, the plates were read on a Envision reader. The final concentrations were 0.5 nM PDL1-6×His, 0.5 nM PDL1-strep, 20 ug/mL Anti-6×His Acceptor beads, 20 ug/mL Strep-tactin Donor beads. The EC50 values were determined by fitting the curves using a four-parameter equation in Graphpad Prism 8.

[2] = target: PD-1/PD-L1 interaction (Homo sapiens (Human), UniProt Q9NZQ7); test: PD-1/PD-L1 NFAT Reporter Assay (Jurkat T cells / PD-L1 expressing CHO cells co-culture); format: cell-based; conditions: for Emax: Jurkat, maximum NFAT-activation level relative to the positive control (10 nM Atezolizumab); for EC50: co-culture 6 hrs at 37° C., luciferase
Experimental: Blocking the PD-1/PD-L1 interaction will release the inhibitory signal and results in TCR signaling and NFAT-mediated luciferase activity.
CHO cells expressing surface-bound anti-CD3 antibodies and PD-L1 were first seeded overnight and treated with the compounds. Jurkat cells overexpressing PD-1 and a luciferase construct under NF-AT promoter were then immediately seeded on the monolayer of CHO cells. The co-culture was then incubated for 6 hrs at 37° C. Luciferase activity was assessed by adding the ONE-Glo reagent and measuring luminescence with a plate reader. EC50s values were determined from the fit of the dose-response curves Emax (%) corresponds to the maximum NFAT-activation level reached by a given compound relative to the positive control (10 nM Atezolizumab).

[3] = target: PDL1/PD1 (Homo sapiens (Human), UniProt Q9NZQ7); test: PDL1/PD1 Binding Assay; conditions: PDL1-6xHis 0.3 nM, PD1-Fc-Avi-Biotin 2.5 nM, Acceptor/Donor beads; read-out: PD-1/PD-L1 PPI IC50
Experimental: Compounds to be tested were serially diluted in DMSO, and further diluted in assay buffer (25 mM Hepes pH 7.4, 150 mM NaCl, 0.005% Tween 20, BSA 0.01%). Diluted compounds were added to the wells with final concentration of DMSO at 1%. PDL1-6×His protein was added to the wells, mixed well with compound. The plates were incubated for 30 min at room temperature. PD1-Fc-Avi-Biotin protein was added to the wells. Final concentration of PDL1 and PD1 protein is 0.3 nM and 2.5 nM, respectively. After a binding time of 30 min at room temperature, Anti-6×His Acceptor beads (final concentration 20 ug/ml) were added to the wells, and the incubation continued for 1 h. Streptavidin Donor beads (final concentration 20 ug/mL) were added at reduced light. The plates were sealed with foil and incubated in the dark for additional 1 h or overnight before reading on an Envision reader. The IC50 values were determined by fitting the curves using a four-parameter equation in Graphpad Prism 8.

Sequence of PDL1 (Q9NZQ7 19-238): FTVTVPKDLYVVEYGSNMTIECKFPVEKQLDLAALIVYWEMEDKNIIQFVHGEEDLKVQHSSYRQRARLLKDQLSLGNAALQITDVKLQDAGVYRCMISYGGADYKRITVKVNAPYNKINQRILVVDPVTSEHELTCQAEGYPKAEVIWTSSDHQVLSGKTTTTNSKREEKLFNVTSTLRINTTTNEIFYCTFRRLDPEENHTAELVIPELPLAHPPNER
Sequence of PDL1 (Q9NZQ7 19-238): as above
Sequence of PD-1/PD-L1 interaction (Q9NZQ7 19-290): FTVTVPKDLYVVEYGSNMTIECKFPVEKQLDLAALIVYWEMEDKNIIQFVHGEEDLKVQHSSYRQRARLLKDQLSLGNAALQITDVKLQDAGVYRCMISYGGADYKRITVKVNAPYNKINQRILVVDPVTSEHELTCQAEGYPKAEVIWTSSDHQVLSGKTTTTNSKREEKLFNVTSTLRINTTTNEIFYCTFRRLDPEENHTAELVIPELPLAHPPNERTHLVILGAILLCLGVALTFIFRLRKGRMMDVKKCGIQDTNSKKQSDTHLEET
Sequence of PDL1/PD1 (Q9NZQ7 19-238): as the sequence (Q9NZQ7 19-238) above

Row | Structure (SMILES) | EC50 [1] | Emax [2] | EC50 [2] | IC50 [3]
1 | COc1cc(-c2cccc(-c3cccc(-c4cnc(CN5CC6(CCC(=O)N6)C5)c(OC)n4)c3Cl)c2Cl)cc2c1[C@H](NCC(=O)O)CC2 (single isomer, unassigned) [Compound B-2] | 1000 to 10000 nM | 107% | 100 to 1000 nM | –
2 | COc1cc(-c2cccc(-c3cccc(-c4cnc(CN5CC(O)C5)c(OC)n4)c3Cl)c2Cl)cc2c1[C@@H](N1CC(O)C1)CC2 (single isomer, unassigned) [Compound A-9] | 1000 to 10000 nM | 105% | 100 to 1000 nM | ≤ 10 nM
3 | COc1cc(-c2cccc(-c3cccc(-c4cnc(CN5CC6(CCC(=O)N6)C5)c(OC)n4)c3Cl)c2Cl)cc2c1[C@@H](NCC(=O)O)CC2 [Compound B-1] | 1000 to 10000 nM | 89% | 1000 to 10000 nM | –
4 | COc1cc(-c2cccc(-c3cccc(-c4cnc(CN5CC6(CCC(=O)N6)C5)c(OC)n4)c3Cl)c2Cl)cc2c1[C@H](N1CC3(CCC(=O)N3)C1)CC2 (single isomer, unassigned) [Compound A-8] | 1000 to 10000 nM | 145% | 100 to 1000 nM | ≤ 10 nM
